Assay [1] in a line: Binding affinity to SARS-CoV-2 Attenuator hairpin RNA by MST assay. Further details: species or system Severe acute respiratory syndrome coronavirus 2.
Assay [2] can be described thus: Binding affinity to pre-miR-27a (unknown origin) assessed as dissociation constant.
A further assay deals with T1, Sulfhydryl oxidase 1 (Homo sapiens, UniProt O00391).
T1 sequence (O00391 whole entry): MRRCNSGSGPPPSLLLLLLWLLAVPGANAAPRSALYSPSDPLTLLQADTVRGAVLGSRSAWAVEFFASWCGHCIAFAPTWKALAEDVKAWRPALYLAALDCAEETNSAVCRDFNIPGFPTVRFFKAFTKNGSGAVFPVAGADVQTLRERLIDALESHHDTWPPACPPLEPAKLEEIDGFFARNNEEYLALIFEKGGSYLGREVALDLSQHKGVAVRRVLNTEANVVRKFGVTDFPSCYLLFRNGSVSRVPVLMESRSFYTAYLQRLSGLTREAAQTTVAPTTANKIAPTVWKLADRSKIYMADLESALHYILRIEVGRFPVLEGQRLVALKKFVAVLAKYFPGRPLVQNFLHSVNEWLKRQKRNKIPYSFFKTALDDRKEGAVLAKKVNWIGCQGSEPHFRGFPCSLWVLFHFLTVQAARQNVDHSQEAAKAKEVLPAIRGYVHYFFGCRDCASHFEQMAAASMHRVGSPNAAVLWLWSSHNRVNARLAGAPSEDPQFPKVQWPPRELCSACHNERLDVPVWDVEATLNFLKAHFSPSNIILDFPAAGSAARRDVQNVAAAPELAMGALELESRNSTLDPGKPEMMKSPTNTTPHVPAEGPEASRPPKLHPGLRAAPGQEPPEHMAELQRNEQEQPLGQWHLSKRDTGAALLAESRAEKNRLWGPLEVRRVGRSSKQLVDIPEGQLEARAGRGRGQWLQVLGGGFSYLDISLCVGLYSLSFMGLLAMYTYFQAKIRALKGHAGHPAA
Put plainly: Binding affinity to QSOX1 (unknown origin) assessed as dissociation constant.

The nature of assay [3]: Binding affinity to HCV RNA. On the set-up: species or system Hepacivirus hominis.
Assay [4] can be described thus: Binding affinity to pre-miR-200c (unknown origin) assessed as dissociation constant.
Assay [5] in a line: Binding affinity to HCV IRES. On the set-up: species or system Hepacivirus hominis.
Assay [6] can be described thus: Binding affinity to pre-miR-210 (unknown origin) assessed as dissociation constant.
Assay [7] in a line: Binding affinity to CUG repeat RNA (unknown origin) assessed as dissociation constant.
Assay [8] is described as follows: Binding affinity to pre-miR-96 (unknown origin) assessed as dissociation constant.
The nature of assay [9]: Binding affinity to CGG repeat RNA (unknown origin) assessed as dissociation constant.
The nature of assay [10]: Binding affinity to pre-miR-21 (unknown origin) assessed as dissociation constant.
A short description of assay [11]: Binding affinity to preQ1.
A short description of assay [12]: Binding affinity to mouse MALAT1 assessed as dissociation constant.
Assay [13] can be described thus: Binding affinity to r(AUUCA) repeat RNA (unknown origin) assessed as dissociation constant.
Assay [14] can be described thus: Binding affinity to HIV-1 RNA assessed as dissociation constant. On the set-up: species or system Human immunodeficiency virus 1.
Assay [15] can be described thus: Binding affinity to XIST RNA (unknown origin).
Assay [16] in a line: Binding affinity to pre-miR-544 (unknown origin) assessed as dissociation constant.
Assay [17] is described as follows: Binding affinity to CAG repeat RNA (unknown origin) assessed as dissociation constant.
A short description of assay [18]: Binding affinity to pre-mRNA (unknown origin).
Another assay deals with FMN riboswitch. The experiment in a line: Binding affinity to Escherichia coli FMN riboswitch RNA assessed as dissociation constant. Type of assay: nucleic-acid assay.

Numbered stars: 1 amine (or outer) side, 2 acyl side, 3 side chain; on linkers, the order of the positions; unused ones are H or OH. Bridge positions count the residues as written; N and C are the ends. Peptide text beside a SMILES is read from it. X1 = CCC(C)CCCCCCCCC(CC(=O)[*:1])O[*:2]

For the compound `CNc1nc(Nc2cccc(C(=O)O)c2)nc2ccccc12`, in [1], the Kd came to 11 nM.

Regarding `Cc1ccc(C(=O)N2Cc3ccccc3C[C@H]2C(N)=O)cc1NCc1c(F)ccc(O)c1F`, the dissociation constant Kd in assay [2] amounted to 94 nM.

For the compound `C#CCCC1(CCC(=O)N(C)[C@@H]2CC[C@H](c3ccc(Cl)c(Cl)c3)c3ccccc32)N=N1`, the Kd at Sulfhydryl oxidase 1 amounted to 16000 nM.

Consider `O=C(Nc1ccc(C2=NCCN2)cc1)c1cc(C(=O)Nc2ccc(C3=NCCN3)cc2)cc(C(=O)Nc2ccc(C3=NCCN3)cc2)c1`, for which the Kd stood at 849 nM in assay [3] and 1100 nM in assay [4].

For `CN(C)CC1COc2ccc3nc4n(c3c2C1)CC(CN(C)C)CN4` (stereo not drawn), in [5], the Kd stood at 720 nM.

Take `C#CCN(CC(N)=O)C(=O)C[C@@H](Cc1c[nH]c2ccccc12)NC(=O)[C@H]1CC(NC(=O)Cn2c(=O)[nH]c3ccccc3c2=O)CN1` (stereo partly drawn): in [2], the dissociation constant (Kd) was 90 nM.

For the compound `CN1CCN(c2ccc3nc(-c4ccc5[nH]c(-c6cccc(OCCCC(=O)NCCCN=[N+]=[N-])c6)nc5c4)[nH]c3c2)CC1`, the Kd in assay [6] was determined as 1700 nM; in assay [7] it was 150 nM; in [8], 1500 nM; in assay [9], 375 nM.

Take `C#CCCC1(CCC(=O)Nc2ccc(OC)c(OCc3cn4ccccc4n3)c2)N=N1`: the dissociation constant Kd in assay [10] turned out to be 256 nM.

The compound `NCCOc1ccc2oc3ccccc3c2c1` returned a Kd in assay [11] of 500 nM.

`N=C(N)c1ccc(-c2ccc(-c3ccc(C(=N)N)cc3)o2)cc1` [FURAMIDINE]: the Kd in assay [12] was 560 nM; in [13], 170 nM.

For the compound `CCC(C)CCCCCCCCC1CC(=O)N[C@@H](CCC(=O)O)C(=O)N[C@@H](CC(C)C)C(=O)N[C@@H](CC(C)C)C(=O)N[C@@H](C(C)C)C(=O)N[C@@H](CC(=O)O)C(=O)N[C@@H](CC(C)C)C(=O)N[C@@H](CC(C)C)C(=O)O1` (stereo partly drawn) (ELLVDLL; linker N-C via X1), the Kd in [10] was found to be 780 nM.

As for `CC(=O)c1c(C)c2cnc(Nc3ccc(N4CCNCC4)cn3)nc2n(C2CCCC2)c1=O` [PALBOCICLIB], the Kd in [14] is 104 nM.

Turning to `COc1ccc(-c2cnc(NCc3cccc(OC)c3)n2C)cc1`, in assay [12], the dissociation constant (Kd) came out at 2900 nM.

Regarding `O=C(NCCN1CCCC1)c1ccc2oc(C(=O)c3cc(O)c(O)c(O)c3)cc2c1`, the Kd in [5] is 360 nM.

On to `c1ccc(COc2cccc(-c3ccc4[nH]nc(-c5nc6ccccc6[nH]5)c4c3)c2)cc1`, for which, in [15], the affinity, expressed as Kd, was 400 nM.

Turning to `N#Cc1c(N2CCCC2)nc(N)c2c(N)nc(N3CCCC3)cc12`, the Kd in [7] came out at 125 nM; in [16], 1000 nM; in assay [17] it was 1400 nM.

The compound `CN(C)c1nc(N)c(C(=O)NC(=N)N)nc1C#Cc1ccccc1` displayed a Kd in assay [5] of 520 nM.

Turning to `O=C1c2c(O)ccc(O)c2C(=O)c2c(NCCNCCO)ccc(NCCNCCO)c21` [MITOXANTRONE], the Kd in assay [18] was under 1000 nM; in assay [10], 33 nM.

As for `CNc1ncc(CN2CCCC(c3nc(O)cc(-c4cccs4)n3)C2)cn1` (stereo not drawn), the Kd in the assay with FMN riboswitch came out at 16 nM.

On to `NC(=O)CNC(=O)[C@H](Cc1ccc(Cl)cc1)NC(=O)c1ccc2nc(-c3ccccc3)[nH]c2c1`, for which the Kd in assay [7] stood at 6300 nM.

For the origin of these results see ChEMBL document CHEMBL5257055, “Contemporary Progress and Opportunities in RNA-Targeted Drug Discovery” (ACS Med Chem Lett, 2023).
